Reference: ChEMBL document CHEMBL3885881, “DrugMatrix”

Species: Rattus norvegicus
Experiment: DrugMatrix - Regimen: Daily Repeat
Assay type: toxicity, organism-based, Sprague-Dawley
Set-up: regimen Daily Repeat, gender Male, age 6-8 weeks
Conditions: in vivo, po, route oral GAVAGE, vehicle 100 % WATER; for ABSOLUTE BASOPHIL / ABSOLUTE EOSINOPHIL / ABSOLUTE LYMPHOCYTE / ABSOLUTE MONOCYTE / ABSOLUTE SEGMENTED NEUTROPHIL / BASOPHIL / EOSINOPHIL / ERYTHROCYTE COUNT / HEMATOCRIT / HEMOGLOBIN / LEUKOCYTE COUNT / LYMPHOCYTE / MEAN CORPUSCULAR HEMOGLOBIN / MEAN CORPUSCULAR HEMOGLOBIN CONCENTRATION / MEAN CORPUSCULAR VOLUME / MONOCYTE / NEUTROPHIL / NUCLEATED RED BLOOD CELLS / PLATELET COUNT: tissue Blood; for ALANINE AMINOTRANSFERASE / ALBUMIN / ALKALINE PHOSPHATASE / ASPARTATE AMINOTRANSFERASE / BLOOD UREA NITROGEN / CARBON DIOXIDE / CHLORIDE / CHOLESTEROL / CREATINE PHOSPHOKINASE / CREATININE / GLUCOSE / LIPASE / PHOSPHORUS / POTASSIUM / SODIUM / TOTAL BILIRUBIN / TOTAL PROTEIN / URIC ACID: tissue Plasma
[1] = 175 mg/kg, 120 h, dose level High, time 5 day
[2] = […], 72 h, dose 5.7 mg/Kg, dose level Low, time 3 day
[3] = […], 120 h, dose 5.7 mg/Kg, dose level Low, time 5 day

SMILES: CC(C)NCC(O)COc1cccc2ccccc12 (stereo unspecified) [PROPRANOLOL]
- ABSOLUTE BASOPHIL [1]: 0 CELLS/uL
- ABSOLUTE EOSINOPHIL [1]: 0 CELLS/uL
- ABSOLUTE LYMPHOCYTE [1]: 13526.33 CELLS/uL
- ABSOLUTE MONOCYTE [1]: 232.67 CELLS/uL
- ABSOLUTE SEGMENTED NEUTROPHIL [1]: 741 CELLS/uL
- BASOPHIL [1]: 0%
- EOSINOPHIL [1]: 0%
- ERYTHROCYTE COUNT [1]: 5.28 x10E6/uL
- HEMATOCRIT [1]: 34.3%
- HEMOGLOBIN [1]: 13.2 G/DL
- LEUKOCYTE COUNT [1]: 14.5 x10E3/uL
- LYMPHOCYTE [1]: 93.33%
- MEAN CORPUSCULAR HEMOGLOBIN [1]: 25 pg
- MEAN CORPUSCULAR HEMOGLOBIN CONCENTRATION [1]: 38.5 G/DL
- MEAN CORPUSCULAR VOLUME [1]: 65 fL
- MONOCYTE [1]: 1.67%
- NEUTROPHIL [1]: 5%
- NUCLEATED RED BLOOD CELLS [1]: 0 /100WBC
- PLATELET COUNT [1]: 1299 x10E3/uL
- ALANINE AMINOTRANSFERASE [1]: 57.33 u/L
- ALBUMIN [1]: 3.97 G/DL
- ALKALINE PHOSPHATASE [1]: 397.33 u/L
- ASPARTATE AMINOTRANSFERASE [1]: 73.67 u/L
- BLOOD UREA NITROGEN [1]: 17 mg/dL
- CARBON DIOXIDE [1]: 29 mmol/L
- CHLORIDE [1]: 101 MEQ/L
- CHOLESTEROL [1]: 78.67 mg/dL
- CREATINE PHOSPHOKINASE [1]: 314.67 u/L
- CREATININE [1]: 0.18 mg/dL
- GLUCOSE [1]: 149 mg/dL
- LIPASE [1]: 10 u/L
- PHOSPHORUS [1]: 13.43 mg/dL
- POTASSIUM [1]: 6.7 MEQ/L
- SODIUM [1]: 144.77 MEQ/L
- TOTAL BILIRUBIN [1]: 0.2 mg/dL
- TOTAL PROTEIN [1]: 5.6 G/DL
- URIC ACID [1]: 1.33 mg/dL
- ABSOLUTE BASOPHIL [2]: 0 CELLS/uL
- ABSOLUTE EOSINOPHIL [2]: 0 CELLS/uL
- ABSOLUTE LYMPHOCYTE [2]: 11391.33 CELLS/uL
- ABSOLUTE MONOCYTE [2]: 180.33 CELLS/uL
- ABSOLUTE SEGMENTED NEUTROPHIL [2]: 2228.33 CELLS/uL
- BASOPHIL [2]: 0%
- EOSINOPHIL [2]: 0%
- ERYTHROCYTE COUNT [2]: 5.65 x10E6/uL
- HEMATOCRIT [2]: 35.6%
- HEMOGLOBIN [2]: 13.2 G/DL
- LEUKOCYTE COUNT [2]: 13.8 x10E3/uL
- LYMPHOCYTE [2]: 82.33%
- MEAN CORPUSCULAR HEMOGLOBIN [2]: 23.37 pg
- MEAN CORPUSCULAR HEMOGLOBIN CONCENTRATION [2]: 37.07 G/DL
- MEAN CORPUSCULAR VOLUME [2]: 62.97 fL
- MONOCYTE [2]: 1.33%
- NEUTROPHIL [2]: 16.33%
- NUCLEATED RED BLOOD CELLS [2]: 0.33 /100WBC
- PLATELET COUNT [2]: 1291 x10E3/uL
- ALANINE AMINOTRANSFERASE [2]: 52.67 u/L
- ALBUMIN [2]: 4.07 G/DL
- ALKALINE PHOSPHATASE [2]: 368.67 u/L
- ASPARTATE AMINOTRANSFERASE [2]: 80 u/L
- BLOOD UREA NITROGEN [2]: 14 mg/dL
- CARBON DIOXIDE [2]: 27.67 mmol/L
- CHLORIDE [2]: 102.67 MEQ/L
- CHOLESTEROL [2]: 83 mg/dL
- CREATINE PHOSPHOKINASE [2]: 155.33 u/L
- CREATININE [2]: 0.26 mg/dL
- GLUCOSE [2]: 153.33 mg/dL
- LIPASE [2]: 11.33 u/L
- PHOSPHORUS [2]: 13.73 mg/dL
- POTASSIUM [2]: 6.83 MEQ/L
- SODIUM [2]: 146 MEQ/L
- TOTAL BILIRUBIN [2]: 0.2 mg/dL
- TOTAL PROTEIN [2]: 5.83 G/DL
- URIC ACID [2]: 1.7 mg/dL
- ABSOLUTE BASOPHIL [3]: 0 CELLS/uL
- ABSOLUTE EOSINOPHIL [3]: 0 CELLS/uL
- ABSOLUTE LYMPHOCYTE [3]: 12645 CELLS/uL
- ABSOLUTE MONOCYTE [3]: 541.67 CELLS/uL
- ABSOLUTE SEGMENTED NEUTROPHIL [3]: 1413.33 CELLS/uL
- BASOPHIL [3]: 0%
- EOSINOPHIL [3]: 0%
- ERYTHROCYTE COUNT [3]: 5.27 x10E6/uL
- HEMATOCRIT [3]: 34.07%
- HEMOGLOBIN [3]: 12.83 G/DL
- LEUKOCYTE COUNT [3]: 14.6 x10E3/uL
- LYMPHOCYTE [3]: 87%
- MEAN CORPUSCULAR HEMOGLOBIN [3]: 24.37 pg
- MEAN CORPUSCULAR HEMOGLOBIN CONCENTRATION [3]: 37.77 G/DL
- MEAN CORPUSCULAR VOLUME [3]: 64.5 fL
- MONOCYTE [3]: 3.67%
- NEUTROPHIL [3]: 9.33%
- NUCLEATED RED BLOOD CELLS [3]: 0.33 /100WBC
- PLATELET COUNT [3]: 1063 x10E3/uL
- ALANINE AMINOTRANSFERASE [3]: 45.33 u/L
- ALBUMIN [3]: 4.27 G/DL
- ALKALINE PHOSPHATASE [3]: 387.67 u/L
- ASPARTATE AMINOTRANSFERASE [3]: 114 u/L
- BLOOD UREA NITROGEN [3]: 22.33 mg/dL
- CARBON DIOXIDE [3]: 21.67 mmol/L
- CHLORIDE [3]: 99.67 MEQ/L
- CHOLESTEROL [3]: 67.33 mg/dL
- CREATINE PHOSPHOKINASE [3]: 1341.67 u/L
- CREATININE [3]: 0.51 mg/dL
- GLUCOSE [3]: 217 mg/dL
- LIPASE [3]: 11.67 u/L
- PHOSPHORUS [3]: 14.5 mg/dL
- POTASSIUM [3]: 7.21 MEQ/L
- SODIUM [3]: 143.73 MEQ/L
- TOTAL BILIRUBIN [3]: 0.17 mg/dL
- TOTAL PROTEIN [3]: 6.07 G/DL
- URIC ACID [3]: 2.67 mg/dL
